A short description of experiment [1]: Hepatoprotective activity in human HL-7702 cells assessed as inhibition of D-galactosamine-induced toxicity at 1x10'-5 M by MTT assay relative to control. The experiment is classed as functional. To be noted: L02. On the technique in general: Formazan colour is commonly taken as a measure of viable cells.
Experiment [2] has as its system L02. In words: Hepatoprotective activity against D-galactosamine-induced toxicity in human HL-7702 cells assessed as survival rate at 1x10'-5 M by MTT assay relative to normal cell. Type of experiment: functional. To be noted: read-out: Survival.

What is called inhibition is the change of the read-out against control, counted positive when it falls. Consider `COc1ccc(C(=O)C(=O)c2ccc(O[C@@H]3O[C@H](CO[C@@H]4OC[C@@H](O)[C@H](O)[C@H]4O)[C@@H](O)[C@H](O)[C@H]3O)cc2O)cc1O`, for which the inhibition at 10 µM in experiment [1] was determined as 27.1%. Besides, in experiment [2], the viability at 10 µM came out at 61.3%.

Consider `COc1ccc(C(=O)C(=O)c2ccc(O[C@@H]3O[C@H](CO[C@@H]4OC[C@](O)(CO)[C@H]4O)[C@@H](O)[C@H](O)[C@H]3O)cc2O)cc1O`, for which, in experiment [1], the inhibition at 10 µM came to 52.4%. Also, the viability at 10 µM in experiment [2] worked out at 74.7%.

As for `COc1ccc(-c2coc3cc(O[C@@H]4O[C@H](CO[C@@H]5OC[C@](O)(CO)[C@H]5O)[C@@H](O)[C@H](O)[C@H]4O)ccc3c2=O)cc1O`, the inhibition at 10 µM in experiment [1] amounted to 36.6%. Further, in experiment [2], the viability at 10 µM worked out at 66.3%.

With `COc1cc(-c2coc3cc(O[C@@H]4O[C@H](CO[C@@H]5OC[C@@H](O)[C@H](O)[C@H]5O)[C@@H](O)[C@H](O)[C@H]4O)ccc3c2=O)ccc1O`, in experiment [1], the inhibition at 10 µM amounted to 45.8%. Also, in experiment [2], the viability at 10 µM turned out to be 71.2%.

Consider `COc1ccc(-c2coc3cc(O[C@@H]4O[C@H](CO[C@@H]5OC[C@@H](O)[C@H](O)[C@H]5O)[C@@H](O)[C@H](O)[C@H]4O)ccc3c2=O)cc1O`, for which, in experiment [1], the inhibition at 10 µM worked out at 46.3%. Further, the viability at 10 µM in experiment [2] was found to be 71.5%.

With `COC(=O)c1cc(OC)c2c(c1-c1c(CO)cc(OC)c3c1OCO3)OCO2` [BICYCLOL], the inhibition at 10 µM in experiment [1] turned out to be 29.4%. In experiment [2], the viability at 10 µM worked out at 62.5%.
